From patent publication US12595231B2 (priority 2022, dated 2026)
Like-named read-outs stand apart in the source and are kept apart here.

Legend:
[1] = primary salt formation assessment: storage at 40° C./75% RH for ca. 24 h, XRPD; format: physicochemical; details: solids stored at 40° C./75% RH for ca. 24 h
Description: Solids were dried at 40° C. under vacuum for ca. 24 h, and then re-analysed by XRPD.
Solids were then stored at 40° C./75% RH for ca. 24 h, and then re-analysed by XRPD.

[2] = primary salt formation assessment: solution degradation (HPLC of mother liquor); format: physicochemical; details: salt formation experiment
Description: HPLC analysis was carried out to determine the chemical purity of the mesembrine and to provide information on any impurities. The following conditions were use: • Column: Waters Acquity BEH 018 1.7 μm 150 mm×2.1 mm • Column Temperature: 33° C. • Autosampler Temperature: 25° C. • UV Wavelength: 280 nm • Injection Volume: 5 μL • Flow Rate: 0.29 mL/min • Mobile Phase A: 0.1% NH4 in H2O • Mobile Phase B: Methanol:Water 20:80% v/v • Gradient Program: […]
The experiments were then temperature cycled between the upper temperature limit (specified in Table 3.1) and 5° C. at 0.1° C./min, with 1 h holds at the upper temperature limit, and 5° C. for ca. 72 h.
After temperature cycling, solids were isolated from experiments at 5° C., and analysed by XRPD.

[3] = DVS analysis (water uptake); format: physicochemical; details: for hygroscopicity: from DVS water uptake at 80% RH
[4] = VH-XRPD analysis (variable humidity); format: physicochemical
[5] = salt hydration study in methanol/water of known water activity; format: physicochemical; details: 25° C.; for Observation: 24 h; for Solubility: methanol/water, all levels of water activity (aw 0.2, 0.5, 0.8)
Description: Approximately 20 mg of the hydrochloride (HCl), besylate and fumarate salts were weighed into 3×2 mL push cap vials. 0.05-0.1 mL of relevant solvent system was added to each vial, at 25° C.
Methanol/water solvent systems (99:1, 75:25, 33:67) of known water activity (aw 0.2, 0.5 and 0.8 respectively) were used. The experiment was stirred for ca. 24 h. After 24 h, any slurries were centrifuged, and the solids analysed by XRPD.
An additional hydration study was required in order to repeat the salt hydration studies, for the HCl salt and the besylate salt due to dissolution in the first set of experiments:
For each salt, approximately 10 mg was weighed into 4×2 mL vials and a stirrer bar added. 10 μL of each solvent system was added, at 25° C. The experiments were stirred for 24 h, and any solids recovered were then analysed by XRPD.

[6] = format: physicochemical; details: for HPLC Conc.: 25° C., 24 h, with respect to mesembrine; for HPLC Purity: solution/mother liquor
Description: Approximately 20 mg of each salt was weighed into 3×2 mL push cap vials. 0.1 mL of buffer (Chloride pH 1.2; Acetate pH 4.5; Phosphate pH 6.8) was added to each vial, at 25° C. The experiment was stirred for ca. 24 h. After 2 h, the pH was measured and adjusted if required. After 24 h a final pH measurement was taken. Any slurries were centrifuged and the solids analysed by XRPD.

1-week stability study = format: physicochemical; details: for Observation: Sigma Aldrich colour chart
Description: A 1-week stability study was performed for hydrochloride salt Pattern 1, besylate salt Pattern 1, fumarate salt Pattern 1+4, and fumarate salt Pattern 4.
Approximately 5 mg of the salt was weighed into 3×2 mL push cap vials. The 2 mL vials were then each placed inside a 20 mL vial, with the lids on or off as required. The solids were placed under the required stability conditions for 1 week at the following three conditions: 40° C./75% RH (open); 80° C. (closed); Ambient light, temperature and humidity (open)
After 1-week, visual observations were noted, then the solids were analysed by XRPD and HPLC.

[7] = HCl salt, background statement; cited from earlier work
5-HT transporter = 5-HT transporter (Homo sapiens, UniProt P31645); details: Harvey et al., 2011; cited from earlier work
5-HT transporter, sequence (P31645 whole entry, species assumed): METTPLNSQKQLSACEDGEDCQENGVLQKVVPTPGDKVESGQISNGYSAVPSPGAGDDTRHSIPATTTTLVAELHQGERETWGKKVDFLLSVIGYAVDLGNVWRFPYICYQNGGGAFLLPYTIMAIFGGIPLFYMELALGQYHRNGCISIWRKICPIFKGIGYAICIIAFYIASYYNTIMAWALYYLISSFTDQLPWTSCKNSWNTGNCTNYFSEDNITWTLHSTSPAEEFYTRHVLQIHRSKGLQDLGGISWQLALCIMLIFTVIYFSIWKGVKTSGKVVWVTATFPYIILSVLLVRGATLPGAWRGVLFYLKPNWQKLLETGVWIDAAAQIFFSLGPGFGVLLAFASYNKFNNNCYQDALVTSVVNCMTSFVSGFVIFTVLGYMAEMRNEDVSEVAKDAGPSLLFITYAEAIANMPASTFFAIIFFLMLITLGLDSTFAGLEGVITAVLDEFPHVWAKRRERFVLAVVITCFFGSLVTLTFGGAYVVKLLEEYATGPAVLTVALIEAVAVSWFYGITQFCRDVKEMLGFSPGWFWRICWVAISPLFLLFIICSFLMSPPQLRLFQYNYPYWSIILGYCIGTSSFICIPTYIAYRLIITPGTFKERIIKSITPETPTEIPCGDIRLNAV

PDE4B = PDE4B (Homo sapiens, UniProt Q07343); details: Harvey et al., 2011; cited from earlier work
PDE4B, sequence (Q07343 whole entry, species assumed): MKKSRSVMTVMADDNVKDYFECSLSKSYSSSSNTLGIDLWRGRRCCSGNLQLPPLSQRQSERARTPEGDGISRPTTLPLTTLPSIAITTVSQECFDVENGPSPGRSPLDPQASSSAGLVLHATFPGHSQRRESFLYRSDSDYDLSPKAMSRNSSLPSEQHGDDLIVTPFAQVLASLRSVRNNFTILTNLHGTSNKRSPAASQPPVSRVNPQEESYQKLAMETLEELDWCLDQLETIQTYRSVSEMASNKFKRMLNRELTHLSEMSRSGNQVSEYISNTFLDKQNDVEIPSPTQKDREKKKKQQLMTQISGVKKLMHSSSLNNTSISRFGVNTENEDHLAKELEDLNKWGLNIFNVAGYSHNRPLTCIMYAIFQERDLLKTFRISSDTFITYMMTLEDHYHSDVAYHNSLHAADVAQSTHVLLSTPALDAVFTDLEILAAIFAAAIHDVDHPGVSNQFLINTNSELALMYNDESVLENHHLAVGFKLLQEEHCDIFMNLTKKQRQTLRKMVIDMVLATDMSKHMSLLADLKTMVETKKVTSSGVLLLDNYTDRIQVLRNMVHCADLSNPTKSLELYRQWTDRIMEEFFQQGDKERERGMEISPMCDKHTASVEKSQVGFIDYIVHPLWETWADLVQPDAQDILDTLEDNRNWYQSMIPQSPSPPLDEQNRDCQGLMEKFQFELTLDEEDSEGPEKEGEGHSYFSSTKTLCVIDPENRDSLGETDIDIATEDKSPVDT

[8] = 200 mg/mL, water activity aw 0.2 (methanol/water 99:1)
[9] = 400 mg/mL, water activity aw 0.5 (methanol/water 75:25)
[10] = 1000 mg/mL, water activity aw 0.2 (methanol/water 99:1)
[11] = 1000 mg/mL, water activity aw 0.5 (methanol/water 75:25)
[12] = 1000 mg/mL, water activity aw 0.8 (methanol/water 33:67)
[13] = Target pH 1.2 (chloride buffer)
[14] = Target pH 1.2, ca. 20 mg in 0.1 mL buffer
[15] = Target pH 4.5, ca. 20 mg in 0.1 mL buffer
[16] = Target pH 6.8 (phosphate buffer)
[17] = Target pH 6.8, ca. 20 mg in 0.1 mL buffer
[18] = Ambient light, temperature and humidity, 1 week
[19] = 200 mg/mL, water activity aw 0.8 (methanol/water 33:67)

SMILES | DVS water uptake ([3]; 80% RH, 25° C.) [wt %] | hygroscopicity ([3]; 25° C.) | HPLC Conc. [6, 13] [mg/mL] | Observation [6, 14] | HPLC Conc. ([6]; Target pH 4.5 (acetate buffer)) [mg/mL] | Observation [6, 15] | HPLC Conc. [6, 16] [mg/mL] | Observation [6, 17] | HPLC Purity ([6]; Target pH 1.2, 24 h) [% area] | HPLC Purity ([6]; Target pH 4.5, 24 h) [% area] | HPLC Purity ([6]; Target pH 6.8, 24 h) [% area] | HPLC (1-week stability study; 40° C./75% RH (open), 1 week) [% area] | XRPD (pattern number) (1-week stability study; 40° C./75% RH (open), 1 week) | Observation (1-week stability study; 40° C./75% RH (open), 1 week) | HPLC (1-week stability study; 80° C. (closed), 1 week) [% area] | XRPD (pattern number) (1-week stability study; 80° C. (closed), 1 week) | Observation (1-week stability study; 80° C. (closed), 1 week) | HPLC (1-week stability study; [18]) [% area] | XRPD (pattern number) (1-week stability study; [18]) | Observation (1-week stability study; [18]) | other results
COc1ccc(C23CCC(=O)CC2N(C)CC3)cc1OC.O=S(=O)(O)c1ccccc1 (stereo not drawn) [Besylate Pattern 1, mesembrine besylate] | 2.3 | hygroscopic | >172 | Clear solution | >140 | Clear solution | >97 | Clear solution | 98.01 | 98.02 | 97.62 | 98.0 | 1, | Light brown solids (BR8) | 96.7 | 1, | Faint beige solids (BE10) | 98.1 | 1, | Faint beige solids (BE10) | physical stability at 40° C./75% RH (Comments) [1]: physically stable; solution degradation (Comments) [2]: degradation; DVS water uptake ([3]; 90% RH): 13 wt %; solid form by VH-XRPD ([4]; after 17 h at 90% RH): persisted; Observation [5, 8]: Clear solution; Observation [5, 9]: Clear solution; Observation ([5]; 400 mg/mL, water activity aw 0.8 (methanol/water 33:67)): Clear solution; Observation [5, 10]: Clear solution; Observation [5, 11]: Clear solution; Observation [5, 12]: Clear solution; Solubility ([5]; listed as besylate salt): greater than 1000 mg/mL; Solubility ([5]; listed as besylate salt Pattern 1): > 1000 mg/mL; HPLC (1-week stability study; Input): 98.1 % area; XRPD (pattern number) (1-week stability study; Input): 1,; Observation (1-week stability study; Input): Faint beige solids (BE10)
COc1ccc(C23CCC(=O)CC2N(C)CC3)cc1OC.O=C(O)C=CC(=O)O (stereo not drawn) [Fumarate Pattern 1 + 4, mesembrine fumarate] | 0.7 | slightly hygroscopic | 29.44 | Slurry | >24 | Clear solution | 18.98 | Oil | 96.31 | 96.07 | 96.78 | 95.6 | 1/4, | Faint beige solids (BE10 | 83.4 | 6, | Light brown solids (BR8) | 96.1 | 1/4, | Faint beige solids (BE10 | DVS water uptake ([3]; between 0-20% RH): 2.1 wt %; solid form by VH-XRPD ([4]; at 0% RH): fumarate Pattern 5; Observation [5, 19]: Thick slurry; Observation ([5]; 400 mg/mL, water activity aw 0.2 (methanol/water 99:1)): Thick slurry; Observation [5, 9]: Slurry; HPLC (1-week stability study; Input): 96.6 % area; XRPD (pattern number) (1-week stability study; Input): 1/4,; Observation (1-week stability study; Input): Faint beige solids (BE10)
COc1ccc(C23CCC(=O)CC2N(C)CC3)cc1OC.Cl (stereo not drawn) [Hydrochloride Pattern 1, reference compound] | 5.4 | hygroscopic | >105 | Clear solution | >146 | Clear solution | >122 | Clear solution | 97.09 | 93.45 | 92.87 | 93.4 | 1, | Light brown solids (BR8) | 92.8 | 1, | Light brown solids (BR8) | 91.5 | 1, | Faint beige solids (BE10) | physical stability at 40° C./75% RH (Comments) [1]: physically stable; solution degradation (Comments) [2]: degradation; DVS water uptake ([3]; 90% RH): 20.3 wt %; solid form by VH-XRPD ([4]; after 12 h at 90% RH): remained consistent with hydrochloride salt Pattern 1; Observation [5, 8]: Clear solution; Observation ([5]; 200 mg/mL, water activity aw 0.5 (methanol/water 75:25)): Clear solution; Observation [5, 19]: Clear solution; Observation [5, 10]: Clear solution; Observation [5, 11]: Slurry; Observation [5, 12]: Slurry; HPLC (1-week stability study; Input): 90.5 % area; XRPD (pattern number) (1-week stability study; Input): 1,; Observation (1-week stability study; Input): Faint beige solids (BE10); Solubility [7]: poorly soluble at higher concentrations
COc1ccc(C23C=CC(O)CC2N(C)CC3)cc1OC (stereo not drawn) [mesembrenol] |  |  |  |  |  |  |  |  |  |  |  |  |  |  |  |  |  |  |  |  | activity in a 5-HT transporter binding assay (5-HT transporter): potently active; activity against PDE4B activity (PDE4B): potently active
